How the values were obtained:
Type in all cases: in vivo
[1] = test system: bermudagrass (Cynodon dactylon); assay: Test E pre-/postemergence plant response; conditions: scale 0 to 100
Procedure, shortened: (§1)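 In this greenhouse assay, sown seeds received preemergence treatment and young plants of 2 to 18 cm (1- to 4-leaf stage) received postemergence treatment, both with compound in a non-phytotoxic solvent and surfactant vehicle. Effects were rated visually 14 to 21 days later on a 0–100 control scale.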

[2] = test system: annual bluegrass (Poa annua); assay: Test E pre-/postemergence plant response; conditions: scale 0 to 100
Procedure, shortened: as §1

[3] = test system: common purslane (Portulaca oleracea); assay: Test E pre-/postemergence plant response; conditions: scale 0 to 100
Procedure, shortened: as §1

[4] = test system: purple nutsedge (Cyperus rotundus); assay: Test E pre-/postemergence plant response; conditions: scale 0 to 100
Procedure, shortened: as §1

[5] = test system: itchgrass (Rottboellia cochinchinensis); assay: Test E pre-/postemergence plant response; conditions: scale 0 to 100
Procedure, shortened: as §1

[6] = test system: black mustard (Brassica nigra); assay: Test E pre-/postemergence plant response; conditions: scale 0 to 100
Procedure, shortened: as §1

[7] = test system: common groundsel (Senecio vulgaris); assay: Test E pre-/postemergence plant response; conditions: Postemergence, scale 0 to 100
Procedure, shortened: as §1

[8] = test system: naked crabgrass (Digitaria nuda); assay: Test E pre-/postemergence plant response; conditions: scale 0 to 100
Procedure, shortened: as §1

[9] = test system: southern (S.) sandbur (Cenchrus echinatus); assay: Test E pre-/postemergence plant response; conditions: scale 0 to 100
Procedure, shortened: as §1

[10] = test system: goosegrass (Eleusine indica); assay: Test E pre-/postemergence plant response; conditions: scale 0 to 100
Procedure, shortened: as §1

[11] = test system: canola (Brassica rapa); assay: Test C pre-/postemergence plant response; conditions: Preemergence
Procedure, shortened: (§2)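 Greenhouse-type test under controlled conditions: soil-surface preemergence treatment of sown seed and foliar postemergence treatment of seedlings 2–18 cm tall. Each compound was in non-phytotoxic solvent with surfactant. Response was rated by eye after 15–25 days, 0 to 100, against controls.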

[12] = test system: pigweed (Amaranthus retroflexus); assay: Test C pre-/postemergence plant response; conditions: Preemergence
Procedure, shortened: as §2

[13] = test system: spring wheat (Triticum aestivum); assay: Test C pre-/postemergence plant response; conditions: Preemergence
Procedure, shortened: as §2

[14] = 8 g ai/ha, scale 0 to 100 (0 no effect, 100 complete control)
[15] = 16 g ai/ha, scale 0 to 100 (0 no effect, 100 complete control)
[16] = 31 g ai/ha, scale 0 to 100 (0 no effect, 100 complete control)
[17] = 62 g ai/ha, scale 0 to 100, 0 no effect, 100 complete control

CCc1cc(-c2ccc(Cl)cc2)nn1-c1c(O)cnn(C)c1=O [Compound 21]
60: Plant response rating, Wheat, Spring [13, 16]
75: Plant response rating, Bermudagrass ([1]; Postemergence, 62 g ai/ha) | Plant response rating, Itchgrass ([5]; 31 g ai/ha, Preemergence) | Plant response rating, Itchgrass ([5]; Postemergence, 31 g ai/ha) | Plant response rating, Itchgrass ([5]; Postemergence, 62 g ai/ha) | Plant response rating, Goosegrass ([10]; Postemergence, 8 g ai/ha)
0: Plant response rating, Bluegrass ([2]; 8 g ai/ha, Preemergence) | Plant response rating, Bluegrass ([2]; 16 g ai/ha, Preemergence) | Plant response rating, Bluegrass ([2]; 31 g ai/ha, Preemergence) | Plant response rating, Bluegrass ([2]; 62 g ai/ha, Preemergence) | Plant response rating, Bluegrass ([2]; Postemergence, 8 g ai/ha) | Plant response rating, Bluegrass ([2]; Postemergence, 16 g ai/ha) | Plant response rating, Purslane ([3]; 16 g ai/ha, Preemergence) | Plant response rating, Purslane ([3]; 31 g ai/ha, Preemergence) | Plant response rating, Purslane ([3]; 62 g ai/ha, Preemergence) | Plant response rating, Purslane ([3]; Postemergence, 8 g ai/ha) | Plant response rating, Purslane ([3]; Postemergence, 16 g ai/ha) | Plant response rating, Purslane ([3]; Postemergence, 31 g ai/ha) | Plant response rating, Purslane ([3]; Postemergence, 62 g ai/ha) | Plant response rating, Nutsedge, Purple ([4]; 16 g ai/ha, Preemergence) | Plant response rating, Nutsedge, Purple ([4]; 31 g ai/ha, Preemergence) | Plant response rating, Nutsedge, Purple ([4]; 62 g ai/ha, Preemergence) | Plant response rating, Nutsedge, Purple ([4]; Postemergence, 8 g ai/ha) | Plant response rating, Nutsedge, Purple ([4]; Postemergence, 16 g ai/ha) | Plant response rating, Nutsedge, Purple ([4]; Postemergence, 31 g ai/ha) | Plant response rating, Nutsedge, Purple ([4]; Postemergence, 62 g ai/ha) | Plant response rating, Mustard, Black ([6]; 8 g ai/ha, Preemergence) | Plant response rating, Mustard, Black ([6]; 16 g ai/ha, Preemergence) | Plant response rating, Mustard, Black ([6]; 31 g ai/ha, Preemergence) | Plant response rating, Mustard, Black ([6]; 62 g ai/ha, Preemergence) | Plant response rating, Mustard, Black ([6]; Postemergence, 8 g ai/ha) | Plant response rating, Mustard, Black ([6]; Postemergence, 16 g ai/ha) | Plant response rating, Mustard, Black ([6]; Postemergence, 31 g ai/ha) | Plant response rating, Mustard, Black ([6]; Postemergence, 62 g ai/ha) | Plant response rating, Groundsel ([7]; 8 g ai/ha) | Plant response rating, Groundsel ([7]; 62 g ai/ha) | Plant response rating, Canola [11, 14] | Plant response rating, Canola [11, 15] | Plant response rating, Canola [11, 16] | Plant response rating, Canola [11, 17] | Plant response rating, Pigweed [12, 14] | Plant response rating, Pigweed [12, 15] | Plant response rating, Pigweed [12, 16] | Plant response rating, Pigweed [12, 17]
30: Plant response rating, Wheat, Spring [13, 14]
15: Plant response rating, Bluegrass ([2]; Postemergence, 62 g ai/ha)
80: Plant response rating, Itchgrass ([5]; 62 g ai/ha, Preemergence) | Plant response rating, Crabgrass, Naked ([8]; Postemergence, 8 g ai/ha) | Plant response rating, Sandbur, S. ([9]; Postemergence, 8 g ai/ha) | Plant response rating, Sandbur, S. ([9]; Postemergence, 16 g ai/ha) | Plant response rating, Goosegrass ([10]; Postemergence, 16 g ai/ha)
50: Plant response rating, Bermudagrass ([1]; Postemergence, 16 g ai/ha) | Plant response rating, Itchgrass ([5]; Postemergence, 8 g ai/ha)
98: Plant response rating, Crabgrass, Naked ([8]; Postemergence, 31 g ai/ha) | Plant response rating, Sandbur, S. ([9]; 16 g ai/ha, Preemergence) | Plant response rating, Goosegrass ([10]; Postemergence, 62 g ai/ha)
10: Plant response rating, Bluegrass ([2]; Postemergence, 31 g ai/ha)
90: Plant response rating, Bermudagrass ([1]; 16 g ai/ha, Preemergence) | Plant response rating, Crabgrass, Naked ([8]; Postemergence, 16 g ai/ha) | Plant response rating, Goosegrass ([10]; Postemergence, 31 g ai/ha) | Plant response rating, Wheat, Spring [13, 17]
95: Plant response rating, Bermudagrass ([1]; 31 g ai/ha, Preemergence) | Plant response rating, Crabgrass, Naked ([8]; 16 g ai/ha, Preemergence) | Plant response rating, Sandbur, S. ([9]; Postemergence, 31 g ai/ha) | Plant response rating, Goosegrass ([10]; 8 g ai/ha, Preemergence)
100: Plant response rating, Bermudagrass ([1]; 62 g ai/ha, Preemergence) | Plant response rating, Crabgrass, Naked ([8]; 31 g ai/ha, Preemergence) | Plant response rating, Crabgrass, Naked ([8]; 62 g ai/ha, Preemergence) | Plant response rating, Crabgrass, Naked ([8]; Postemergence, 62 g ai/ha) | Plant response rating, Sandbur, S. ([9]; 31 g ai/ha, Preemergence) | Plant response rating, Sandbur, S. ([9]; 62 g ai/ha, Preemergence) | Plant response rating, Sandbur, S. ([9]; Postemergence, 62 g ai/ha) | Plant response rating, Goosegrass ([10]; 16 g ai/ha, Preemergence) | Plant response rating, Goosegrass ([10]; 31 g ai/ha, Preemergence) | Plant response rating, Goosegrass ([10]; 62 g ai/ha, Preemergence)
65: Plant response rating, Bermudagrass ([1]; Postemergence, 31 g ai/ha) | Plant response rating, Itchgrass ([5]; 16 g ai/ha, Preemergence) | Plant response rating, Itchgrass ([5]; Postemergence, 16 g ai/ha)
40: Plant response rating, Bermudagrass ([1]; 8 g ai/ha, Preemergence) | Plant response rating, Bermudagrass ([1]; Postemergence, 8 g ai/ha) | Plant response rating, Wheat, Spring [13, 15]

From patent US20100267561A1, “HERBICIDAL PYRIDAZINONE DERIVATIVES” (priority 2007, published 2010)
